Measured values taken from ChEMBL document CHEMBL1151855, “Synthesis of novel 1-alkyl-8-substituted-3-(3-methoxypropyl) xanthines as putative A(2B) receptor antagonists” (Bioorg Med Chem, 2009).
pKi: −log10 of the molar value.

Legend:
[1] = biological target: T1, Adenosine receptor A2b (Homo sapiens, UniProt P29275); test: Binding affinity to human adenosine A2b receptor expressed in HEK293 cells; assay type: cell-based
T1 sequence (P29275 whole entry): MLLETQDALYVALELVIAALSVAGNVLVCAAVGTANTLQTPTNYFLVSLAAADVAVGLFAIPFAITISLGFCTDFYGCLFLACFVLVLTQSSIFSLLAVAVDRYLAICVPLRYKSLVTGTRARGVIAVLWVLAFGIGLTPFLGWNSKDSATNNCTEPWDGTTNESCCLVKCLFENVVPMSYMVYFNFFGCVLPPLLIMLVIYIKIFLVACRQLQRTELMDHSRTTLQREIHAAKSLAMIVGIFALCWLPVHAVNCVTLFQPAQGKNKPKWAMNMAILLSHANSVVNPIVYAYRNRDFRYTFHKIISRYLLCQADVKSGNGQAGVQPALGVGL

[2] = biological target: T2, Adenosine receptor A2a (Homo sapiens, UniProt P29274); test: Binding affinity to human adenosine A2a receptor expressed in human HeLa cells; assay type: cell-based
T2 sequence (P29274 whole entry): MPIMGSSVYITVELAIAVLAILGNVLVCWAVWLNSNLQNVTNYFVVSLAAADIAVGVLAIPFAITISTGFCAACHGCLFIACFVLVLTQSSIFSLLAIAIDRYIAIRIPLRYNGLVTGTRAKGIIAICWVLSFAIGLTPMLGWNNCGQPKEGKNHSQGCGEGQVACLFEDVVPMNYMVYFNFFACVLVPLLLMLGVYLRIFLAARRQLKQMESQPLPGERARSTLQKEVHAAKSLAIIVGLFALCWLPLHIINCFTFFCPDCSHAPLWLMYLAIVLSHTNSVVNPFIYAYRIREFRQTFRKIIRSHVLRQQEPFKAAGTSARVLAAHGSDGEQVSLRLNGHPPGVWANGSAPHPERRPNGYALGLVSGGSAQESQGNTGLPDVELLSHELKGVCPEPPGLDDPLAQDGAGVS

[3] = biological target: T3, Adenosine receptor A3 (Homo sapiens, UniProt P0DMS8); test: Binding affinity to human adenosine A3 receptor expressed in human HeLa cells; assay type: cell-based
T3 sequence (P0DMS8 whole entry): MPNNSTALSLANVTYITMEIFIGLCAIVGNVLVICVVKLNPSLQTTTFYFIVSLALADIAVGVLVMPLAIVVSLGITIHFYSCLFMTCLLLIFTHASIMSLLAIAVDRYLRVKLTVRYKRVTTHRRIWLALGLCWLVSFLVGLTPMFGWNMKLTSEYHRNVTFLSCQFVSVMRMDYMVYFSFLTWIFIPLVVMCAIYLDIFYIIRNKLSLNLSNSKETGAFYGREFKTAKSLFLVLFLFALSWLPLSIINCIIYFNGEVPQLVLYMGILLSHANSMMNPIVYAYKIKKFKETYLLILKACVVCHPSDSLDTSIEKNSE

[4] = biological target: T4, Adenosine receptor A1 (Rattus norvegicus) (UniProt P25099); test: Displacement of [3H]DPCPX from rat cortex adenosine A1 receptor at 1 uM
T4 sequence (whole entry): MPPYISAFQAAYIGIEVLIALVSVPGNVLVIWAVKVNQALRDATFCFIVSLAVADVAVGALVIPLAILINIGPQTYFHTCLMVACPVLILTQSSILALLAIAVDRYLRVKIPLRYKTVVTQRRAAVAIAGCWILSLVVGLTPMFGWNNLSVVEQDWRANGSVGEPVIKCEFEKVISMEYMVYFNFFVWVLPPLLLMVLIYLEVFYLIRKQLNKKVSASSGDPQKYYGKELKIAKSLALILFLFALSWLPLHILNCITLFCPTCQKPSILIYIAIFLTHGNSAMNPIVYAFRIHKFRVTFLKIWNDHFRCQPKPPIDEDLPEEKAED

[5] = biological target: T5, Adenosine receptor A2b (Homo sapiens) (UniProt P29275); test: Displacement of [3H]DPCPX from human adenosine A2b receptor expressed in HEK293 cells at 1 uM; assay type: cell-based
T5 sequence (whole entry): T1 sequence (P29275 whole entry)

[6] = biological target: T2, Adenosine receptor A2a; test: Displacement of [3H]ZM241385 from human adenosine A2a receptor expressed in human HeLa cells at 1 uM; assay type: cell-based
[7] = biological target: T6, Adenosine receptor A1 (Rattus norvegicus, UniProt P25099); test: Binding affinity to rat cortex adenosine A1 receptor
T6 sequence (P25099 whole entry): T4 sequence (whole entry)

[8] = biological target: T7, Adenosine receptor A3 (Homo sapiens) (UniProt P0DMS8); test: Displacement of [3H]NECA from human adenosine A3 receptor expressed in human HeLa cells at 1 uM; assay type: cell-based
T7 sequence (whole entry): T3 sequence (P0DMS8 whole entry)

Row | Structure (SMILES) | pKi [1] | pKi [2] | Activity [5] [%] | Activity [6] [%] | further results
1 | CCSCCn1c(=O)c2[nH]c(-c3ccccc3)nc2n(CCCOC)c1=O | – | – | 41 | 8 | –
2 | COCCCn1c(=O)n(CC(C)C)c(=O)c2[nH]c(-c3ccccc3)nc21 | – | – | 30 | 25 | –
3 | CCn1c(=O)c2[nH]c(Cc3ccco3)nc2n(CCCOC)c1=O | – | – | 17 | 11 | –
4 | CCn1c(=O)c2c(nc(-c3ccco3)n2C)n(CCCOC)c1=O | – | – | 1 | 14 | –
5 | CCCn1c(=O)c2[nH]c(CCCc3ccccc3)nc2n(CCCOC)c1=O | – | – | 70 | 26 | –
6 | CCOCCn1c(=O)c2[nH]c(-c3ccccc3)nc2n(CCCOC)c1=O | – | – | 21 | 51 | –
7 | CCCn1c(=O)c2[nH]c(-c3ccccc3)nc2n(CCCOC)c1=O | 6.49 | 6.47 | – | – | –
8 | CC[S+]([O-])CCn1c(=O)c2[nH]c(Cc3ccco3)nc2n(CCCOC)c1=O (configuration not stated) | – | – | 0 | 12 | –
9 | CCS(=O)(=O)CCn1c(=O)c2[nH]c(Cc3ccco3)nc2n(CCCOC)c1=O | – | – | 15 | 6 | –
10 | CCn1c(=O)c2[nH]c(-c3ccc[nH]3)nc2n(CCCOC)c1=O | 7.07 | 6.68 | – | – | –
11 | CCCn1c(=O)c2[nH]c(-c3ccc(-c4ccccc4)cc3)nc2n(CCCOC)c1=O | – | – | 66 | 14 | –
12 | CCCCCn1c(=O)c2[nH]c(-c3ccccc3)nc2n(CCCOC)c1=O | – | – | 49 | 0 | –
13 | CCS(=O)(=O)CCn1c(=O)c2[nH]c(-c3ccccc3)nc2n(CCCOC)c1=O | – | – | 0 | 20 | –
14 | CCSCCn1c(=O)c2[nH]c(-c3ccco3)nc2n(CCCOC)c1=O | 6.31 | 5.30 | – | – | –
15 | COCCCn1c(=O)n(CCOC)c(=O)c2[nH]c(-c3ccccc3)nc21 | – | – | 70 | 54 | –
16 | CCCn1c(=O)c2[nH]c(-c3ccc[nH]3)nc2n(CCCOC)c1=O | 6.83 | 6.40 | – | – | –
17 | CCCn1c(=O)c2[nH]c(C3CCCC3)nc2n(CCCOC)c1=O | – | – | 62 | 84 | –
18 | CCn1c(=O)c2[nH]c(-c3ccco3)nc2n(CCCOC)c1=O | 6.86 | 6.31 | – | – | –
19 | CCSCCn1c(=O)c2[nH]c(Cc3ccco3)nc2n(CCCOC)c1=O | 5.70 | – | – | 1 | –
20 | CCn1c(=O)c2c(nc(-c3ccc(-c4ccccc4)cc3)n2C)n(CCCOC)c1=O | – | – | 6 | 5 | –
21 | CCCn1c(=O)c2[nH]c(-c3cccs3)nc2n(CCCOC)c1=O | – | – | 77 | 25 | –
22 | CCn1c(=O)c2[nH]c(-c3ccccc3)nc2n(CCCOC)c1=O | – | – | 67 | 49 | –
23 | CCn1c(=O)c2[nH]c(-c3cccs3)nc2n(CCCOC)c1=O | 6.90 | 6.66 | – | – | –
24 | CC[S+]([O-])CCn1c(=O)c2[nH]c(-c3ccccc3)nc2n(CCCOC)c1=O (configuration not stated) | – | – | 11 | 18 | –

Second part, led by results:

Row | pKi [1] | pKi [2] | Activity [5] [%] | Activity [6] [%] | Structure (SMILES) | further results
25 | 7.93 | 6.83 | – | – | CCn1c(=O)c2[nH]c(-c3ccc(OCC(=O)Nc4ccc(C(C)=O)cc4)cc3)nc2n(CCCOC)c1=O | pKi [3]: 6.15; Activity [4]: 68%
26 | 7.15 | 6.28 | – | – | CCn1c(=O)c2[nH]c(-c3ccc(-c4ccccc4)cc3)nc2n(CCCOC)c1=O | –
27 | 6.76 | 5.75 | – | – | CCn1c(=O)c2[nH]c(-c3ccc(OCC(=O)Nc4ccc(N(C)C)cc4)cc3)nc2n(CCCOC)c1=O | pKi [7]: 6.06; pKi [3]: 6.68
28 | 7.03 | 6.69 | – | – | CCn1c(=O)c2[nH]c(-c3ccc(OCC(=O)Nc4nc5ccccc5[nH]4)cc3)nc2n(CCCOC)c1=O | –
29 | 7.47 | 6.12 | – | – | CCn1c(=O)c2[nH]c(-c3ccc(OCC(=O)Nc4cccnc4)cc3)nc2n(CCCOC)c1=O | pKi [7]: 6.79; pKi [3]: 7.02
30 | 8.54 | 7.01 | – | – | CCn1c(=O)c2[nH]c(-c3ccc(OCC(=O)Nc4ccc(Br)cc4)cc3)nc2n(CCCOC)c1=O | pKi [7]: 7.00; pKi [3]: 5.89
31 | 7.11 | 7.02 | – | – | CCn1c(=O)c2[nH]c(-c3ccc(OCC(=O)NC4CCCC4)cc3)nc2n(CCCOC)c1=O | –
32 | 8.52 | 7.25 | – | – | CCn1c(=O)c2[nH]c(-c3ccc(OCC(=O)Nc4ccc(F)cc4)cc3)nc2n(CCCOC)c1=O | pKi [7]: 7.68; pKi [3]: 6.02
33 | 8.04 | 6.95 | – | – | CCn1c(=O)c2[nH]c(-c3ccc(OCC(=O)Nc4ccc(C#N)cc4)cc3)nc2n(CCCOC)c1=O | pKi [7]: 6.17; pKi [3]: 6.40
34 | 7.31 | 6.64 | – | – | CCn1c(=O)c2[nH]c(-c3ccc(OCC(=O)N4CCc5ccccc5C4)cc3)nc2n(CCCOC)c1=O | pKi [7]: 7.00
35 | 8.52 | 7.06 | – | – | CCn1c(=O)c2[nH]c(-c3ccc(OCC(=O)Nc4ccccc4)cc3)nc2n(CCCOC)c1=O | pKi [7]: 7.44; pKi [3]: 5.60
36 | 7.81 | 6.38 | – | – | CCn1c(=O)c2[nH]c(-c3ccc(OCC(=O)Nc4ccc(O)cc4)cc3)nc2n(CCCOC)c1=O | pKi [7]: 6.76; Activity [8]: 65%
37 | 7.81 | 6.77 | – | – | CCn1c(=O)c2[nH]c(-c3ccc(OCC(=O)Nc4ccccn4)cc3)nc2n(CCCOC)c1=O | Activity [4]: 2%; Activity [8]: 69%
38 | 7.68 | 6.67 | – | – | CCn1c(=O)c2[nH]c(-c3ccc(OCC(=O)Nc4ccon4)cc3)nc2n(CCCOC)c1=O | pKi [7]: 7.02; pKi [3]: 6.03
